# Reference: ChEMBL document CHEMBL1151438, “In vitro resistance study of rupintrivir, a novel inhibitor of human rhinovirus 3C protease” (Antimicrob Agents Chemother, 2007)
# Experiments:
# rhinovirus B14 [1] = assay: Ratio of EC50 for HRV14 infected in human H1-HeLa cells after 4 passages for 17 days to EC50 for wild type HRV14 infected in human H1-HeLa cells; type: functional
# rhinovirus B14 [2] = assay: Ratio of EC50 for HRV14 with 3C protease T129A, T131A, Y139H, T143P mutation infected in human H1-HeLa cells to EC50 for wild type HRV14 infected in human H1-HeLa cells; type: functional
# rhinovirus A2 [3] = assay: Antiviral activity against wild type HRV2 infected in human H1-HeLa cells assessed as virus-induced cytopathic effect after 3 days by XTT assay; type: functional, organism-based; conditions: Rhinovirus A, 72 h
# rhinovirus B14 [4] = assay: Antiviral activity against HRV14 with 3C protease A121A/V, T129A, T131A, N132S, Y139Y/H, T143P mutation infected in human H1-HeLa cells assessed as virus-induced cytopathic effect after 12 passages for 72 days by XTT assay; type: functional, organism-based; conditions: Rhinovirus B
# rhinovirus B14 [5] = assay: Ratio of EC50 for HRV14 infected in human H1-HeLa cells after 9 passages for 48 days to EC50 for wild type HRV14 infected in human H1-HeLa cells; type: functional
# rhinovirus B14 [6] = assay: Antiviral activity against HRV14 with 3C protease T129A mutation infected in human H1-HeLa cells assessed as virus-induced cytopathic effect after 3 days by XTT assay; type: functional, organism-based; conditions: Rhinovirus B, 72 h
# rhinovirus A2 [7] = assay: Ratio of EC50 for HRV2 infected in human H1-HeLa cells after 9 passages for 62 days to EC50 for wild type HRV2 infected in human H1-HeLa cells; type: functional
# rhinovirus B14 [8] = assay: Ratio of EC50 for HRV14 infected in human H1-HeLa cells after 10 passages for 55 days to EC50 for wild type HRV14 infected in human H1-HeLa cells; type: functional
# rhinovirus B14 [9] = assay: Antiviral activity against HRV14 with 3C protease Y139H mutation infected in human H1-HeLa cells assessed as virus-induced cytopathic effect after 3 days by XTT assay; type: functional, organism-based; conditions: Rhinovirus B, 72 h
# rhinovirus A2 [10] = assay: Antiviral activity against HRV2 infected in human H1-HeLa cells assessed as virus-induced cytopathic effect after 3 passages for 17 days by XTT assay; type: functional, organism-based; conditions: Rhinovirus A, 408 h
# rhinovirus A39 [11] = assay: Ratio of EC50 for HRV39 infected in human H1-HeLa cells after 1 passage for 7 days to EC50 for wild type HRV39 infected in human H1-HeLa cells; type: functional
# rhinovirus B14 [12] = assay: Ratio of EC50 for HRV14 infected in human H1-HeLa cells after 1 passage for 6 days to EC50 for wild type HRV14 infected in human H1-HeLa cells; type: functional
# rhinovirus B14 [13] = assay: Ratio of EC50 for HRV14 with 3C protease T129A, T131T/A, T143P mutation infected in human H1-HeLa cells after 4 passages for 17 days to EC50 for wild type HRV14 infected in human H1-HeLa cells; type: functional
# rhinovirus A2 [14] = assay: Antiviral activity against HRV2 with 3C protease N165T mutation infected in human H1-HeLa cells assessed as virus-induced cytopathic effect after 5 passages for 30 days by XTT assay; type: functional, organism-based; conditions: Rhinovirus A
# rhinovirus A39 [15] = assay: Ratio of EC50 for HRV39 infected in human H1-HeLa cells after 6 passages for 33 days to EC50 for wild type HRV39 infected in human H1-HeLa cells; type: functional
# rhinovirus A2 [16] = assay: Ratio of EC50 for HRV2 with 3C protease N165T mutation infected in human H1-HeLa cells after 5 passages for 30 days to EC50 for wild type HRV2 infected in human H1-HeLa cells; type: functional
# rhinovirus A2 [17] = assay: Ratio of EC50 for HRV2 infected in human H1-HeLa cells after 6 passages for 37 days to EC50 for wild type HRV2 infected in human H1-HeLa cells; type: functional
# rhinovirus B14 [18] = assay: Ratio of EC50 for HRV14 with 3C protease with T129A, T131T/A, T143P mutation infected in human H1-HeLa cells after 5 passages for 22 days to EC50 for wild type HRV14 infected in human H1-HeLa cells; type: functional
# rhinovirus B14 [19] = assay: Antiviral activity against 0.02 MOI wild type HRV14 infected in human H1-HeLa cells assessed as cell killing after 3 days by XTT assay; type: functional
# rhinovirus A2 [20] = assay: Ratio of EC50 for HRV2 infected in human H1-HeLa cells after 10 passages for 66 days to EC50 for wild type HRV2 infected in human H1-HeLa cells; type: functional
# rhinovirus A39 [21] = assay: Ratio of EC50 for HRV39 infected in human H1-HeLa cells after 3 passages for 14 days to EC50 for wild type HRV39 infected in human H1-HeLa cells; type: functional
# Human rhinovirus sp. [22] = assay: Ratio of EC50 for HRV Hanks infected in human H1-HeLa cells after 2 passage for 17 days to EC50 for wild type HRV Hanks infected in human H1-HeLa cells; type: functional
# rhinovirus A2 [23] = assay: Ratio of EC50 for HRV2 with 3C protease N165T mutation infected in human H1-HeLa cells after 6 passages for 37 days to EC50 for wild type HRV2 infected in human H1-HeLa cells; type: functional
# rhinovirus B14 [24] = assay: Antiviral activity against HRV14 with 3C protease T143P mutation infected in human H1-HeLa cells assessed as virus-induced cytopathic effect after 3 days by XTT assay; type: functional, organism-based; conditions: Rhinovirus B, 72 h
# rhinovirus B14 [25] = assay: Ratio of EC50 for HRV14 infected in human H1-HeLa cells after 5 passages for 22 days to EC50 for wild type HRV14 infected in human H1-HeLa cells; type: functional
# rhinovirus A2 [26] = assay: Ratio of EC50 for HRV2 with 3C protease N165T mutation infected in human H1-HeLa cells after 4 passages for 24 days to EC50 for wild type HRV2 infected in human H1-HeLa cells; type: functional
# rhinovirus B14 [27] = assay: Ratio of EC50 for HRV14 infected in human H1-HeLa cells after 3 passages for 14 days to EC50 for wild type HRV14 infected in human H1-HeLa cells; type: functional
# rhinovirus B14 [28] = assay: Antiviral activity against HRV14 with 3C protease T129A, T131A, T143P, Y139Y/H mutation infected in human H1-HeLa cells assessed as virus-induced cytopathic effect after 10 passages for 55 days by XTT assay; type: functional, organism-based; conditions: Rhinovirus B
# rhinovirus A39 [29] = assay: Ratio of EC50 for HRV39 infected in human H1-HeLa cells after 4 passages for 24 days to EC50 for wild type HRV39 infected in human H1-HeLa cells; type: functional
# rhinovirus A39 [30] = assay: Ratio of EC50 for HRV39 infected in human H1-HeLa cells after 5 passages for 29 days to EC50 for wild type HRV39 infected in human H1-HeLa cells; type: functional
# Human rhinovirus sp. [31] = assay: Ratio of EC50 for HRV Hanks infected in human H1-HeLa cells after 6 passage for 40 days to EC50 for wild type HRV Hanks infected in human H1-HeLa cells; type: functional
# rhinovirus B14 [32] = assay: Ratio of EC50 for HRV14 infected in human H1-HeLa cells after 8 passages for 40 days to EC50 for wild type HRV14 infected in human H1-HeLa cells; type: functional
# rhinovirus B14 [33] = assay: Ratio of EC50 for HRV14 with 3C protease Y139H mutation infected in human H1-HeLa cells to EC50 for wild type HRV14 infected in human H1-HeLa cells; type: functional
compound,measurement,setting,value
CCOC(=O)/C=C/[C@H](C[C@@H]1CCNC1=O)NC(=O)[C@@H](CC(=O)[C@@H](NC(=O)c1cc(C)on1)C(C)C)Cc1ccc(F)cc1 [RUPINTRIVIR],Ratio EC50,rhinovirus B14 [1],10
same,Ratio EC50,rhinovirus B14 [2],7
same,EC50,rhinovirus A2 [3],30 nM
same,EC50,rhinovirus B14 [4],414 nM
same,Ratio EC50,rhinovirus B14 [5],60
same,EC50,rhinovirus B14 [6],14 nM
same,Ratio EC50,rhinovirus A2 [7],15
same,Ratio EC50,rhinovirus B14 [8],90
same,EC50,rhinovirus B14 [9],14 nM
same,EC50,rhinovirus A2 [10],34 nM
same,Ratio EC50,rhinovirus A39 [11],3
same,Ratio EC50,rhinovirus B14 [12],3.5
same,Ratio EC50,rhinovirus B14 [13],11
same,EC50,rhinovirus A2 [14],57 nM
same,Ratio EC50,rhinovirus A39 [15],6
same,Ratio EC50,rhinovirus A2 [16],2
same,Ratio EC50,rhinovirus A2 [17],5
same,Ratio EC50,rhinovirus B14 [18],5
same,Activity,rhinovirus B14 [19],90.2%
same,Ratio EC50,rhinovirus A2 [20],15
same,Ratio EC50,rhinovirus A39 [21],6
same,Ratio EC50,Human rhinovirus sp. [22],2
same,Ratio EC50,rhinovirus A2 [23],2
same,EC50,rhinovirus B14 [24],15 nM
same,Ratio EC50,rhinovirus B14 [25],20
same,Ratio EC50,rhinovirus A2 [26],2
same,Ratio EC50,rhinovirus B14 [27],5
same,EC50,rhinovirus B14 [28],324 nM
same,Ratio EC50,rhinovirus A39 [29],6
same,Ratio EC50,rhinovirus A39 [30],6
same,Ratio EC50,Human rhinovirus sp. [31],3
same,Ratio EC50,rhinovirus B14 [32],40
same,Ratio EC50,rhinovirus B14 [33],1
